The source of these data is publication PMC9017385, “Pharmacokinetics of Temsavir, the Active Moiety of the HIV-1 Attachment Inhibitor Prodrug, Fostemsavir, Coadministered with Cobicistat, Etravirine, Darunavir/Cobicistat, or Darunavir/Ritonavir with or without Etravirine in Healthy Participants” (Antimicrobial Agents and Chemotherapy, 2022).

Data set [1] in a line: Study 206281: plasma PK of DRV, RTV and ETR with or without FTR. As for the experimental part: (§1) Participants were randomly assigned to one of three cohorts per a computer-generated randomization scheme. • Cohort 1: Participants received FTR at 600 mg twice daily (BID) on days 1 to 4. […] After a 2-day washout (days 5 and 6), participants received ETR at 200 mg BID for 10 days (days 7 to 16) followed by FTR at 600 mg BID with ETR at 200 mg BID for 10 days (days 17 to 26). • Cohort 3: Participants received FTR at 600 mg BID on days 1 to 4.
(§2) Eligible participants were admitted to the clinical facility on day −1 of each study. […] Physical examinations, measurements of vital signs, 12-lead ECGs, and clinical laboratory evaluations were performed, and participants were closely monitored for AEs and SAEs, throughout both studies.
(§3) (i) Bioanalytical methods and PK analysis. […] The lower limit of quantification and the upper limit of quantification for the analysis of TMR in both studies were 5 ng/mL and 5,000 ng/mL, respectively.
(§4) (ii) PK analysis. For both studies, individual participant PK parameter values were derived by noncompartmental methods with a validated PK analysis program using actual times. […] Cmax, Tmax, C12, and C24 were recorded directly from experimental observations and AUCtau was calculated by mixed log-linear trapezoidal summations.
(§5) SAS software version 9.2 (SAS Institute, Inc., Cary, North Carolina) was used for all statistical analyses, tabulations, and graphical presentations. For all treatment comparisons, a linear mixed-effect model was fitted to the log-transformed data with treatment as fixed effect and measurements within each participant as repeated measures, for use in the estimation of effects and the construction of CIs. Point estimates and 90% CIs for differences on the log scale were exponentiated to obtain estimates for GMRs and respective 90% CIs on the original scale. […] FTR administered alone was the reference treatment for both studies.

Data set [2] can be described thus: Study 206281: plasma PK of temsavir after FTR alone or with DRV/r, ETR, or DRV/r plus ETR. The format is in vivo, human. As for the experimental part:
as §1, §2, §3, §4, §5

A short description of data set [3]: Study 206285: plasma PK of temsavir after FTR alone or with DRV/c or COBI. Type of data set: in vivo, human. As for the experimental part: as §2, §3, §4, §5
Data set [4] in a line: QT prolongation at supratherapeutic FTR dose. Type of data set: in vivo, human. The conditions noted are these: supratherapeutic FTR 2,400 mg BID.
In another data set the test system is P-glycoprotein (P-gp). Details: method as in earlier work. The conditions noted are these: preclinical studies; cited from earlier work.
Data set [5] concerns breast cancer resistance protein (BCRP). The following applies: not told; cited from earlier work.
Data set [6] is described as follows: Study 206281: safety, adverse events. The format is in vivo, human. The conditions noted are these: A fostemsavir 600 mg BID, B DRV/r 600/100 mg BID, C ETR 200 mg BID. As for the experimental part:
as §1, §2

Another data set relates to HIV-1. Details: method as in PMID 32212519. The conditions noted are these: through 8 days of FTR functional monotherapy with failing regimen; HTE HIV-1-infected participants, randomized cohort; P < 0.0001; cited from earlier work.
Data set [7] is described as follows: Study 206285: safety, adverse events.
Method: Participants were sequentially enrolled to two cohorts. • Cohort 1: Participants received FTR at 600 mg BID on days 1 to 4. […] Participants then received FTR at 600 mg BID plus COBI at 150 mg QD on days 5 to 14 (Fig. 4B).
Setting [8] is: FTR plus DRV/r plus ETR vs DRV/r plus ETR, study 206281 cohort 3.
The mark [9] stands for this setting: FTR with DRV/r vs DRV/r, study 206281 cohort 1.
Where [10] appears, read: FTR coadministered with DRV/r and ETR vs FTR alone, study 206281 cohort 3.
Where [11] appears, read: FTR coadministered with DRV/r vs FTR alone, study 206281 cohort 1.
Where [12] appears, read: FTR coadministered with ETR vs FTR alone, study 206281 cohort 2.
Where [13] appears, read: FTR coadministered with ETR vs FTR alone, study 206281 cohort 2, listed as TMR.
The mark [14] stands for this setting: FTR coadministered with COBI vs FTR alone, study 206285 cohort 2.
Where [15] appears, read: FTR coadministered with DRV and COBI (DRV/c) vs FTR alone, study 206285 cohort 1.
[16] abbreviates: DRV/r plus ETR with FTR vs DRV/r plus ETR, study 206281 cohort 3.
[17] abbreviates: ETR with FTR vs ETR alone, study 206281 cohort 2.
Setting [18] is: FTR with DRV/r + ETR vs DRV/r plus ETR, study 206281 cohort 3.

In the case of `CC(C)c1nc(CN(C)C(=O)N[C@H](C(=O)N[C@@H](Cc2ccccc2)C[C@H](O)[C@H](Cc2ccccc2)NC(=O)OCc2cncs2)C(C)C)cs1` [RTV], in data set [1] (setting [8]), the “increase in RTV AUCtau” value was found to be 9%, the “increase in RTV C12” value came out at 7% and the “increase in RTV Cmax” value was 14%. In addition, in data set [1] (setting [9]), the “change in RTV Cmax” value is “no meaningful change”, the “increase in RTV AUCtau” value is 15% and the “increase in RTV C12” value came to 19%.
With `COc1cnc(-n2cnc(C)n2)c2[nH]cc(C(=O)C(=O)N3CCN(C(=O)c4ccccc4)CC3)c12` [Temsavir], the “increase in TMR AUCtau” value in data set [2] (setting [10]) came out at 34%; in [2] (setting [11]), 63%; in data set [3] (setting [14]), 93%; in data set [3] (setting [15]) it was 97%. Moreover, the “increase in TMR C12 (Ctau in abstract)” value in data set [2] (setting [10]) was found to be 33%; in data set [2] (setting [11]), 88%; in [3] (setting [14]), 136%; in [3] (setting [15]), 124%. For the same compound, the “increase in TMR Cmax” value in [2] (setting [10]) was 53%; in [2] (setting [11]) it was 52%; in data set [3] (setting [14]) it was 71%; in data set [3] (setting [15]), 79%. In addition, in data set [2] (FTR coadministered with ETR), the “decrease in TMR exposures” value is “approximately 50%”. Besides, the “decrease in TMR AUCtau” value in data set [2] (setting [12]) is reported as 50%. In addition, the “decrease in TMR C12 (Ctau in abstract)” value is listed as approximately 50% in data set [2] (setting [12]) and 52% in data set [2] (setting [13]). For the same compound, the entries for the “decrease in TMR Cmax” value in data set [2] (setting [12]) and in [2] (setting [13]) were approximately 50% and 48%, respectively. The “fold by which exposures with TMR Cmax-driven QT prolongation exceed geometric mean TMR exposures of the current studies” value in [4] is listed as more than 2 fold. In the data set with P-glycoprotein (P-gp), the “P-glycoprotein (P-gp) substrate” value is recorded as “substrate”. For the same compound, the BCRP substrate result in data set [5] is listed as “substrate”.
What is called AUC is concentration integrated over time. High values mean more exposure, low ones less exposure. Usually Cmax stands for the maximum level reached in the sampled fluid or tissue. On to `Cc1cc(C#N)cc(C)c1Oc1nc(Nc2ccc(C#N)cc2)nc(N)c1Br` [ETR, reference compound], for which, in [1] (setting [16]), the “increase in ETR AUCtau” value came to 28%, the “increase in ETR C12” value is on record as 28% and the “increase in ETR Cmax” value is given as 18%. Besides, in data set [1] (setting [17]), the “increase in ETR AUCtau” value was found to be 11%, the “increase in ETR C12” value was 14% and the “increase in ETR Cmax” value is on record as 11%. Further, in data set [1] (human, plasma, oral, 200 mg), the AUC stood at 7820 ng·h/mL, the highest level (Cmax) was 846 ng/mL and the concentration at 12 h turned out to be 457 ng/mL. In addition, in data set [6], the Abdominal distension is listed as 0 No. of patients (%), the Aphthous stomatitis was 0 No. of patients (%), the Back pain was 0 No. of patients (%) and the Diarrhea is 0 No. of patients (%). Also, in [6], the Dizziness is recorded as 0 No. of patients (%), the Drug eruption is on record as 2 (14.3) No. of patients (%), the Dry mouth was 0 No. of patients (%) and the Fatigue is on record as 0 No. of patients (%). Further, in data set [6], the Headache is given as 0 No. of patients (%), the Muscle spasms is 0 No. of patients (%), the Nausea is given as 0 No. of patients (%) and the Pruritus is 0 No. of patients (%). Moreover, in data set [6], the Pruritus generalized is listed as 1 (7.1) No. of patients (%), the Somnolence was 0 No. of patients (%) and the “Subjects with any AE” value was 4 (28.6) No. of patients (%).
As to `COc1cnc(-n2cnc(C)n2)c2c1c(C(=O)C(=O)N1CCN(C(=O)c3ccccc3)CC1)cn2COP(=O)(O)O` [Fostemsavir], in [6], the Abdominal distension was 0 No. of patients (%), the Aphthous stomatitis is on record as 0 No. of patients (%), the Back pain was 0 No. of patients (%) and the Diarrhea is reported as 0 No. of patients (%). In data set [6], the Dizziness was 0 No. of patients (%), the Drug eruption was 0 No. of patients (%), the Dry mouth was 1 (2.2) No. of patients (%) and the Fatigue is given as 0 No. of patients (%). In data set [6], the Headache is on record as 1 (2.2) No. of patients (%), the Muscle spasms is reported as 0 No. of patients (%), the Nausea is reported as 1 (2.2) No. of patients (%) and the Pruritus is recorded as 1 (2.2) No. of patients (%). In [6], the Pruritus generalized was 0 No. of patients (%), the Somnolence is given as 0 No. of patients (%) and the “Subjects with any AE” value is on record as 6 (13.0) No. of patients (%). The “adjusted mean decline in HIV-1 RNA” value in the data set with HIV-1 was 0.8 log10 copies/mL. For the same compound, in data set [7] (study 206285 cohort 1), the Back pain is listed as 1 (6.3) No. of patients (%), the Constipation was 0 No. of patients (%), the Cough is 0 No. of patients (%) and the Headache is listed as 3 (18.8) No. of patients (%). Besides, in data set [7] (study 206285 cohort 1), the Myalgia is listed as 0 No. of patients (%), the Nausea is 1 (6.3) No. of patients (%), the Neutrophil count decreased is 0 No. of patients (%) and the Oropharyngeal pain is 2 (12.5) No. of patients (%). In [7] (study 206285 cohort 1), the Pain is 0 No. of patients (%), the “Participants with AE” value is 6 (37.5) No. of patients (%), the Vomiting was 1 (6.3) No. of patients (%) and the WBC decreased is recorded as 0 No. of patients (%). Further, in [7] (study 206285 cohort 2), the Back pain is 1 (6.3) No. of patients (%), the Constipation was 0 No. of patients (%), the Cough is recorded as 0 No. of patients (%) and the Headache is recorded as 1 (6.3) No. of patients (%). Further, in [7] (study 206285 cohort 2), the Myalgia is 0 No. of patients (%), the Nausea is on record as 0 No. of patients (%), the Neutrophil count decreased is reported as 0 No. of patients (%) and the Oropharyngeal pain is recorded as 0 No. of patients (%). Also, in [7] (study 206285 cohort 2), the Pain is 0 No. of patients (%), the “Participants with AE” value is 3 (18.8) No. of patients (%), the Vomiting is 0 No. of patients (%) and the WBC decreased is 0 No. of patients (%).
On to `CC(C)CN(C[C@@H](O)[C@H](Cc1ccccc1)NC(=O)O[C@H]1CO[C@H]2OCC[C@H]21)S(=O)(=O)c1ccc(N)cc1` [DRV], for which, in data set [1] (setting [18]), the “decrease in DRV AUCtau” value was 6%, the “decrease in DRV C12” value was determined as 12% and the “decrease in DRV Cmax” value came out at 5%.
